≈ marks a conversion by molar mass, not a printed value. Calls of active or inactive are those of the source. The rule behind the calls is not given here.
Experiments:
[1] = system: Streptococcus pneumoniae; experiment: Antibacterial activity against cephalosporin-resistant Streptococcus pneumoniae ATCC 51916 clinical isolates after 18 to 20 hrs by CLSI-based broth microdilution assay; format: functional
[2] = system: Escherichia coli; experiment: Antimicrobial activity against Escherichia coli JW55031 harboring deltatolC mutant after 18 to 20 hrs in aerobic condition by CLSI protocol based broth microdilution assay; format: functional
[3] = system: Shigella flexneri; experiment: Antibacterial activity against Shigella flexneri ATCC 9199 clinical isolates after 18 to 20 hrs in aerobic condition by CLSI-based broth microdilution assay; format: functional
[4] = system: Klebsiella pneumoniae; experiment: Antibacterial activity against Klebsiella pneumoniae BAA-1706 clinical isolates after 18 to 20 hrs in aerobic condition by CLSI-based broth microdilution assay; format: functional
[5] = system: Clostridioides difficile; experiment: Antibacterial activity against Clostridium difficile ATCC BAA 1870 incubated for 48 hrs in anaerobic condition by CLSI-based broth microdilution assay; format: functional; settings: ATCC BAA 1870, 48 h
[6] = system: Streptococcus pneumoniae; experiment: Ratio of MBC to MIC for […] Streptococcus pneumoniae ATCC 700677 clinical isolates; format: functional
[7] = system: Escherichia coli; experiment: Ratio of MBC to MIC for Escherichia coli ATCC 35150 clinical isolates; format: functional
[8] = system: Escherichia coli; experiment: microbe, parasite or virus in culture; settings: ATCC 1411
Description: Antibacterial activity against Escherichia coli ATCC 1411 clinical isolates after 18 to 20 hrs in aerobic condition by CLSI-based broth microdilution assay

[9] = system: Klebsiella pneumoniae; experiment: Antibacterial activity against Klebsiella pneumoniae BAA-1144 clinical isolates after 18 to 20 hrs in aerobic condition by CLSI-based broth microdilution assay; format: functional
[10] = system: Salmonella enterica; experiment: Ratio of MBC to MIC for Salmonella enterica NR-170 clinical isolates; format: functional
[11] = system: Streptococcus pneumoniae; experiment: Antibacterial activity against methicillin-resistant Streptococcus pneumoniae ATCC 700677 clinical isolates after 18 to 20 hrs by CLSI-based broth microdilution assay; format: functional
[12] = system: Salmonella enteritidis; experiment: Antibacterial activity against Salmonella enteritidis ATCC 14028 clinical isolates after 18 to 20 hrs in aerobic condition by CLSI-based broth microdilution assay; format: functional, Salmonella enterica subsp. enterica serovar Enteritidis; settings: Salmonella enterica
[13] = system: Enterococcus faecalis; experiment: Antibacterial activity against vancomycin-resistant Enterococcus faecalis ATCC 51299 clinical isolates after 18 to 20 hrs in aerobic condition by CLSI-based broth microdilution assay; format: functional
[14] = system: Escherichia coli; experiment: Ratio of MBC to MIC for Escherichia coli BW25113 clinical isolates; format: functional
[15] = system: Listeria monocytogenes; experiment: Antibacterial activity against Listeria monocytogenes ATCC 19111 after 18 to 20 hrs in aerobic condition by CLSI-based broth microdilution assay; format: functional
[16] = system: Enterococcus faecium; experiment: Antibacterial activity against vancomycin-resistant Enterococcus faecium ATCC 700221 clinical isolates after 18 to 20 hrs in aerobic condition by CLSI-based broth microdilution assay; format: functional
[17] = system: Acinetobacter baumannii; experiment: Antibacterial activity against Acinetobacter baumannii ATCC 19606 clinical isolates after 18 to 20 hrs in aerobic condition by CLSI-based broth microdilution assay; format: functional; settings: ATCC 19606 = CIP 70.34 = JCM 6841
[18] = system: Acinetobacter baumannii; experiment: Antibacterial activity against Acinetobacter baumannii NR 17785 clinical isolates after 18 to 20 hrs in aerobic condition by CLSI-based broth microdilution assay; format: functional
[19] = system: Acinetobacter baumannii; experiment: Ratio of MBC to MIC for Acinetobacter baumannii ATCC 19606 clinical isolates; format: functional, ATCC 19606 = CIP 70.34 = JCM 6841
[20] = system: Staphylococcus epidermidis; experiment: Antibacterial activity against Staphylococcus epidermidis NRS101 after 18 to 20 hrs in aerobic condition by CLSI-based broth microdilution assay; format: functional
[21] = system: Salmonella enteritidis; experiment: Ratio of MBC to MIC for Salmonella enteritidis ATCC 14028 clinical isolates; format: functional, Salmonella enterica subsp. enterica serovar Enteritidis
[22] = system: Salmonella typhimurium; experiment: Ratio of MBC to MIC for Salmonella typhimurium ATCC 700720 clinical isolates; format: functional, Salmonella enterica subsp. enterica serovar Typhimurium
[23] = system: Salmonella typhimurium; experiment: Antibacterial activity against Salmonella typhimurium ATCC 700720 after 18 to 20 hrs in aerobic condition by CLSI-based broth microdilution assay; format: functional, Salmonella enterica subsp. enterica serovar Typhimurium; settings: Salmonella enterica
[24] = system: Staphylococcus aureus; experiment: Ratio of MBC to MIC for Methicillin-sensitive Staphylococcus aureus NRS107 clinical isolates; format: functional
[25] = system: Listeria monocytogenes; experiment: Ratio of MBC to MIC for Listeria monocytogenes ATCC 19111 clinical isolates; format: functional
[26] = system: Escherichia coli; experiment: Antibacterial activity against Escherichia coli ATCC 25922 clinical isolates after 18 to 20 hrs in aerobic condition by CLSI-based broth microdilution assay; format: functional
[27] = system: Salmonella enteritidis; experiment: Ratio of MBC to MIC for Salmonella enteritidis ATCC 13076 clinical isolates; format: functional, Salmonella enterica subsp. enterica serovar Enteritidis
[28] = system: Staphylococcus aureus; experiment: Antibacterial activity against Methicillin-sensitive Staphylococcus aureus ATCC 6538 clinical isolates after 18 to 20 hrs in aerobic condition by CLSI protocol based broth microdilution assay; format: functional
[29] = system: Staphylococcus aureus; experiment: Antibacterial activity against Methicillin-resistant Staphylococcus aureus NRS123-USA400 clinical isolates after 18 to 20 hrs in aerobic condition by CLSI protocol based broth microdilution assay; format: functional
[30] = system: Escherichia coli; experiment: Ratio of MBC to MIC for Escherichia coli ATCC 25922 clinical isolates; format: functional
[31] = target: T1, Ditrans,polycis-undecaprenyl-diphosphate synthase ((2E,6E)-farnesyl-diphosphate specific) (Escherichia coli (strain K12)) (UniProt P60472); experiment: Inhibition of Escherichia coli UPPS using FPP/IPP as substrate preincubated for 30 mins followed by substrates addition and measured after 30 mins by malachite green reagent based assay
T1 sequence (whole entry): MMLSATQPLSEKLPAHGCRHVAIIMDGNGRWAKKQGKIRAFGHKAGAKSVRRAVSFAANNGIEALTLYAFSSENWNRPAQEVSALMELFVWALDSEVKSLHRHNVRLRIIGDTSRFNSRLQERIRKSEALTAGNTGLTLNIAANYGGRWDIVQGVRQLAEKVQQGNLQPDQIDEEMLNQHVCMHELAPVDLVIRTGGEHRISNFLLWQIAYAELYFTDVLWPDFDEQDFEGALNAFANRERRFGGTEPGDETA

[32] = system: Staphylococcus aureus; experiment: Antibiofilm activity against methicillin-resistant Staphylococcus aureus NRS384-USA300 clinical isolates assessed as inhibition of biofilm formation at 0.5 times MIC incubated for 24 hrs by crystal violet staining based spectrophotometric method relative to control; format: functional

## C/C(=N\NC(=N)N)c1cnn(-c2ccc(C#CC3(O)CCCCC3)cc2)c1C
[1]
  MIC: 4 µg/mL (≈ 10.6 µM)
[2]
  MIC: 4 µg/mL (≈ 10.6 µM)
[3]
  MIC: 16 µg/mL (≈ 42.3 µM)
[4]
  MIC: 8 µg/mL (≈ 21.1 µM)
[5]
  MIC: 4 µg/mL (≈ 10.6 µM)
[6]
  Ratio: <3
[7]
  Ratio: >=1
[8]
  MIC: 32 µg/mL (≈ 84.5 µM)
[9]
  MIC: 16 µg/mL (≈ 42.3 µM)
[10]
  Ratio: >=1
[11]
  MIC: 2 µg/mL (≈ 5.28 µM)
[12]
  MIC: 32 µg/mL (≈ 84.5 µM)
[13]
  MIC: 2 µg/mL (≈ 5.28 µM)
[14]
  Ratio: >=1
[15]
  MIC: 2 µg/mL (≈ 5.28 µM)
[16]
  MIC: 2 µg/mL (≈ 5.28 µM)
[17]
  MIC: 4 µg/mL (≈ 10.6 µM)
[18]
  MIC: 8 µg/mL (≈ 21.1 µM)
[19]
  Ratio: >=1
[20]
  MIC: 4 µg/mL (≈ 10.6 µM)
[21]
  Ratio: >=1
[22]
  Ratio: >=1
[23]
  MIC: 64 µg/mL (≈ 169 µM)
[24]
  Ratio: <=2
[25]
  Ratio: <3
[26]
  MIC: 8 µg/mL (≈ 21.1 µM)
[27]
  Ratio: >=1
[28]
  MIC: 2 µg/mL (≈ 5.28 µM)
[29]
  MIC: 2 µg/mL (≈ 5.28 µM)
[30]
  Ratio: >=1

## CCCCCC#Cc1ccc(-n2ncc(/C(C)=N/NC(=N)N)c2C)cc1
[1]
  MIC: 2 µg/mL (≈ 5.71 µM)
[2]
  MIC: 4 µg/mL (≈ 11.4 µM)
[3]
  MIC: 8 µg/mL (≈ 22.8 µM)
[4]
  MIC: 8 µg/mL (≈ 22.8 µM)
[5]
  MIC: 4 µg/mL (≈ 11.4 µM)
[6]
  Ratio: <3
[7]
  Ratio: >=1
[8]
  MIC: 16 µg/mL (≈ 45.7 µM)
[9]
  MIC: 16 µg/mL (≈ 45.7 µM)
[10]
  Ratio: >=1
[31]
  inhibition: inactive
[11]
  MIC: 2 µg/mL (≈ 5.71 µM)
[12]
  MIC: 16 µg/mL (≈ 45.7 µM)
[13]
  MIC: 2 µg/mL (≈ 5.71 µM)
[14]
  Ratio: >=1
[15]
  MIC: 2 µg/mL (≈ 5.71 µM)
[16]
  MIC: 2 µg/mL (≈ 5.71 µM)
[17]
  MIC: 4 µg/mL (≈ 11.4 µM)
[18]
  MIC: 8 µg/mL (≈ 22.8 µM)
[19]
  Ratio: >=1
[20]
  MIC: 2 µg/mL (≈ 5.71 µM)
[21]
  Ratio: >=1
[22]
  Ratio: >=1
[23]
  MIC: 8 µg/mL (≈ 22.8 µM)
[24]
  Ratio: <=2
[25]
  Ratio: <3
[26]
  MIC: 8 µg/mL (≈ 22.8 µM)
[27]
  Ratio: >=1
[28]
  MIC: 2 µg/mL (≈ 5.71 µM)
[29]
  MIC: 2 µg/mL (≈ 5.71 µM)
[30]
  Ratio: >=1

## C/C(=N\NC(=N)N)c1cnn(-c2ccc(C#Cc3ccccc3)cc2)c1C
[1]
  MIC: 1 µg/mL (≈ 2.81 µM)
[2]
  MIC: 2 µg/mL (≈ 5.61 µM)
[3]
  MIC: 8 µg/mL (≈ 22.4 µM)
[4]
  MIC: 8 µg/mL (≈ 22.4 µM)
[5]
  MIC: 4 µg/mL (≈ 11.2 µM)
[6]
  Ratio: <3
[7]
  Ratio: >=1
[8]
  MIC: 8 µg/mL (≈ 22.4 µM)
[9]
  MIC: 8 µg/mL (≈ 22.4 µM)
[10]
  Ratio: >=1
[31]
  inhibition: inactive
[11]
  MIC: 2 µg/mL (≈ 5.61 µM)
[12]
  MIC: 16 µg/mL (≈ 44.9 µM)
[13]
  MIC: 1 µg/mL (≈ 2.81 µM)
[14]
  Ratio: >=1
[15]
  MIC: 2 µg/mL (≈ 5.61 µM)
[16]
  MIC: 1 µg/mL (≈ 2.81 µM)
[17]
  MIC: 4 µg/mL (≈ 11.2 µM)
[18]
  MIC: 4 µg/mL (≈ 11.2 µM)
[19]
  Ratio: >=1
[20]
  MIC: 2 µg/mL (≈ 5.61 µM)
[21]
  Ratio: >=1
[22]
  Ratio: >=1
[23]
  MIC: 8 µg/mL (≈ 22.4 µM)
[24]
  Ratio: <=2
[25]
  Ratio: <3
[26]
  MIC: 4 µg/mL (≈ 11.2 µM)
[27]
  Ratio: >=1
[28]
  MIC: 1 µg/mL (≈ 2.81 µM)
[32]
  inhibition (INH): 50%
[29]
  MIC: 2 µg/mL (≈ 5.61 µM)
[30]
  Ratio: >=1
